Test system: 857933-349-R-J2-PDC complex spheroid viability
Assay: Anticancer human tumor 857933-349-R-J2-PDC patient-derived colon adenocarcinoma cell line growth inhibition [POLQ]
Settings: for IC50: curve of first compound; for viability, T/C: stronger effect = lower value
Description: Multicellular complex tumor spheroid response to Polymerase (POL) inhibitors (novobiocin, ART-558, RP6685) in combination with a variety of drugs and investigational agents in selected tumor cell lines
The POL inhibitors (novobiocin, ART-558, and RP6685) were evaluated both individually and in combination with standard of care and investigational anticancer small molecules within a complex spheroid model of solid tumors. . Complex spheroids include a stromal component modeled by human endothelial cells (HUVEC) and fibroblasts modeled by human mesenchymal stem cells (MSCs). The concentration ranges selected for each drug and investigational agent were based upon clinically achievable concentrations if the clinical Cmax of the agent was known.
Compounds. The drugs and investigational agents: novobiocin (NSC847541), ART-558 (NSC835418), RP-6685 (NSC848927), peposertib (NSC802822), ceralasertib (NSC780249), elimusertib (NSC800525), camonsertib (NSC841442), AZD-1390 (NSC803789), olaparib (NSC753686), talazoparib (NSC767125), rucaparib (NSC756644), sotorasib (NSC818433), MRTX-1133 (NSC836407), SN-38 (NSC673596), topotecan (NSC609699), epotoside (NSC141540), doxorubicin (NSC123127), gemcitabine (NSC613327), 5-fluorouracil (NSC19893), paclitaxel (NSC125973), vemurafenib (NSC761431), MSA-2 (NSC828583), SN-011 (NSC837082), adavosertib (NSC754352), prexasertib (NSC758257), carboplatin (NSC241240) and oxaliplatin (NSC266046), were obtained from the National Cancer Institute (NCI) Developmental Therapeutics Program Chemical Repository (21). The FDA-approved anticancer drug set is available from the Developmental Therapeutics Program at https://dtp.cancer.gov/organization/dscb/obtaining/. […] The stock solutions were prepared in dimethyl sulfoxide (DMSO, Sigma-Aldrich, St. Louis, MO, cat. D2650), except for the platinum compounds which were prepared in saline (Quality Biological, Gaithersburg, MD, cat. 114-055-101), at 800-fold the tested concentration and stored at -70 degrees C prior to their use. All drugs and investigational agents were tested over a range starting from a high concentration at or near the clinical Cmax and decreasing in half-log increments. If the clinical Cmax for an agent had not been determined, the highest concentration tested was 10 microM, except for SN-38, which was tested at a high concentration of 1 microM.
Cell Culture. All cells were maintained in an incubator at 37 degrees C and 5% CO2 with 95% humidity. The PDC lines were cultured according to standard operating procedures established by the NCI PDMR (https://pdmr.cancer.gov). Table 3 of the manuscript, lists the cell lines along with the number of the three cell types plated to form the mct-spheroids and media for tumor cell growth. After thawing, all PDC lines, except 997537-175-T-J1-PDC and 415267-285-R-J2-PDC, were cultured in Matrigel-coated flasks prepared with a working solution of 1X Ham's F-12 nutrient mix, without supplementation (Thermo Fisher Scientific, cat. 11765054), 100 U/mL penicillin-streptomycin (Thermo Fisher Scientific, cat. 15140122), and 2.5% Matrigel (Corning Inc., Corning, NY, cat. 354248) for the first three passages. The two PDC lines 997537-175-T-J1-PDC and 415267-285-R-J2-PDC were cultured on uncoated flasks. The 857933-349-R-J2-PDC line was cultured in 6C/Colon 1B media containing advanced DMEM/F-12 (Thermo Fisher Scientific, cat. 12634028), 10 mM HEPES (Thermo Fisher Scientific, cat. 15630080), 1X GlutaMAX supplement (Thermo Fisher Scientific, cat. 35050061), 0.1 mg/mL primocin (InvivoGen, San Diego, CA, cat. ant-pm-2), 10% defined fetal bovine serum, heat inactivated (HyClone Laboratories Inc., Logan, UT, cat. SH30070.03HI), 50% L-WRN conditioned media (ATCC, cat. CRL-3276), 1.25 mM N-Acetyl-L-cysteine (Sigma-Aldrich, cat. A9165), 10 mM nicotinamide (Sigma-Aldrich, cat. N0636), 1X B-27 supplement (Thermo Fisher Scientific, cat. 17504044), 1X N-2 supplement (Thermo Fisher Scientific, cat. […]
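Also: spheroids exposed to compounds for seven days before readout.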

SMILES: COc1cc2cc(C(=O)CCC(=O)O)sc2cc1OC + COC1C(OC(N)=O)C(O)C(Oc2ccc3c(O)c(NC(=O)c4ccc(O)c(CC=C(C)C)c4)c(=O)oc3c2C)OC1(C)C
- IC50 (second compound 0.0316 µM): > 10 µM
- IC50 (second compound 0.1 µM): > 10 µM
- IC50 (second compound 0.316 µM): > 10 µM
- IC50 (second compound 1 µM): > 10 µM
- IC50 (second compound 3.16 µM): > 10 µM
- IC50 (second compound 10 µM): > 10 µM
- viability, T/C (second compound 0.0316 µM, first compound 0.0316 µM): 82%
- viability, T/C (second compound 0.0316 µM, first compound 0.1 µM): 98.3%
- viability, T/C (second compound 0.0316 µM, first compound 0.316 µM): 79.9%
- viability, T/C (second compound 0.0316 µM, first compound 1 µM): 79%
- viability, T/C (second compound 0.0316 µM, first compound 3.16 µM): 106%
- viability, T/C (second compound 0.0316 µM, first compound 10 µM): 93.8%
- viability, T/C (second compound 0.1 µM, first compound 0.0316 µM): 91.4%
- viability, T/C (second compound 0.1 µM, first compound 0.1 µM): 95.5%
- viability, T/C (second compound 0.1 µM, first compound 0.316 µM): 98.1%
- viability, T/C (second compound 0.1 µM, first compound 1 µM): 79.2%
- viability, T/C (second compound 0.1 µM, first compound 3.16 µM): 92.5%
- viability, T/C (second compound 0.1 µM, first compound 10 µM): 111%
- viability, T/C (second compound 0.316 µM, first compound 0.0316 µM): 104%
- viability, T/C (second compound 0.316 µM, first compound 0.1 µM): 102%
- viability, T/C (second compound 0.316 µM, first compound 0.316 µM): 84%
- viability, T/C (second compound 0.316 µM, first compound 1 µM): 97.2%
- viability, T/C (second compound 0.316 µM, first compound 3.16 µM): 84.4%
- viability, T/C (second compound 0.316 µM, first compound 10 µM): 79.7%
- viability, T/C (second compound 1 µM, first compound 0.0316 µM): 110%
- viability, T/C (second compound 1 µM, first compound 0.1 µM): 112%
- viability, T/C (second compound 1 µM, first compound 0.316 µM): 103%
- viability, T/C (second compound 1 µM, first compound 1 µM): 94.2%
- viability, T/C (second compound 1 µM, first compound 3.16 µM): 110%
- viability, T/C (second compound 1 µM, first compound 10 µM): 122%
- viability, T/C (second compound 3.16 µM, first compound 0.0316 µM): 90.6%
- viability, T/C (second compound 3.16 µM, first compound 0.1 µM): 91.1%
- viability, T/C (second compound 3.16 µM, first compound 0.316 µM): 86.6%
- viability, T/C (second compound 3.16 µM, first compound 1 µM): 77.4%
- viability, T/C (second compound 3.16 µM, first compound 3.16 µM): 84.1%
- viability, T/C (second compound 3.16 µM, first compound 10 µM): 90%
- viability, T/C (second compound 10 µM, first compound 0.0316 µM): 76.4%
- viability, T/C (second compound 10 µM, first compound 0.1 µM): 98.1%
- viability, T/C (second compound 10 µM, first compound 0.316 µM): 108%
- viability, T/C (second compound 10 µM, first compound 1 µM): 116%
- viability, T/C (second compound 10 µM, first compound 3.16 µM): 112%
- viability, T/C (second compound 10 µM, first compound 10 µM): 91.9%

— PubChem BioAssay AID1963836 (Molecular Pharmacology Branch, DTP, NCI, 2024)
